Laboratory results from patent publication US5336485A, “Method for protecting animals against tacrine induced cytotoxic injury using sterol compounds” (priority 1993, dated 1994).
Counter-ions that a name gives are not always drawn.

Experiments:
[1] = system: liver; test: Partial liver ischemia/reperfusion-induced injury in rats; assay type: in vivo, rat; settings: dihydrocholesterol sulfate vs dihydrocholesterol plus sodium sulfate
Method: 20 hours prior to global occlusion, one group of 10 rats was provided with 64 mg cholesterol/kg body weight and 100 mg tris succinate/kg body weight by i.p. injection, and another group of 10 rats was provided with 100 mg cholesteryl succinate/kg body weight. A control group of rats was only partially occluded for the one hour period. Ninety percent of the rats pretreated with cholesteryl succinate tris salt survived while only 10% of those pretreated with the combination of cholesterol and tris succinate survived. Table 22 of a partial ischemia study where male Sprague-Dawley rats were subjected to occlusion of the blood supply to the left lateral and median lobes of the liver for 60 minutes followed by reperfusion for 24 hours. During this time, the normal blood supply to the other lobes of the liver was maintained. […] Serum was obtained for AST and ALT measurements.
^a Partial liver ischemia was induced in male Sprague Dawley rats

[2] = system: liver; test: CCl4 induced hepatotoxicity in rats (serum AST/ALT); assay type: in vivo, rat
Method: In vivo experiments were performed to determine if alpha-TS administration protects the liver from chemical toxicity. The liver is the target organ for CCl4. CCl4 is a hepatotoxic agent that induces centrilobular liver necrosis through its metabolism to free radicals. Male Sprague-Dawley rats were given an intraperitoneal dose (100 mg/kg) of a tocopherol analog 24 hours prior to a CCl4 challenge (2.9g/kg given by oral garage). Forty eight hours after the challenge, the rats were sacrificed and the levels of aspartate aminotransferase (AST) and alanine aminotransferase (ALT) were measured.
As discussed above, SGOT levels provide a clinical assessment of hepatotoxicity (liver damage).
Succinate analogs were administered to male Sprague-Dawley rats 20 hours prior to a 1 g CCl4 /kg body weight oral challenge and the AST and ALT serum enzyme levels were measured 48 hours after the challenge.
Similar to the experiments were described above, the ionizable congeners were administered to Sprague-Dawley rats by i.p. injection of a 100 mg ionizable congener/kg body weight dose 20 hours prior to oral administration of a 1 g/kg dose of CCl4, and the AST and ALT levels were measured 48 hours after the CCl4 challenge.

[3] = Tissue distribution of alpha-tocopherol and alpha-tocopherol ester in rats; assay type: in vivo, rat; settings: 100 mg/kg ip, 24 h
Method: 100 mg/kg body weight of a tocopherol analog was administered to Sprague-Dawley rats using a peanut oil:ethanol vehicle (3:2). Twenty four hours later the rats were sacrificed and the accumulation of the tocopherol analog in the liver was determined.
A similar in vivo experiment to that discussed in conjunction with Table 5 was performed to determine if other tissues accumulate alpha-TS. Male Sprague-Dawley rats were given a 100 mg/kg dose of alpha-TS using a variety of chemical forms and vehicles. A variety of techniques were used to administer the alpha-TS. Twenty four hours later the rats were sacrificed and the tissues were tested for alpha-TS accumulation.

[4] = system: rat hepatocytes; test: EMS-induced cytotoxicity (LDH leakage/cell death) in rat hepatocyte suspensions; settings: for Protection From Toxic Injury: EMS 3 h
Method: To determine if alpha-TS is a cytoprotective agent under physiological conditions, liver cells were incubated with Waymouth's medium containing approximately 1 mM extracellular Ca^2+ in the presence and absence of alpha-TS.
(§1) At each time-point, rapid separation of viable from non-viable hepatocytes and medium was accomplished by the dibutyl phthalate centrifugation method. Cell viability was monitored hourly by measuring LDH leakage with a Cobas Analyzer and intracellular [K^+ ]with a flame photometer. LDH was routinely measured in the medium while intracellular K^+ was measured in the 10% perchloric acid lysate of viable cells. Lipid peroxidation was determined by measuring TBA reactants in the medium. […] The samples were diluted with 0.3 ml 1% ascorbate in 0.1 M SDS, 0.4 ml ethanol, sonicated and extracted once with 0.8 ml hexane. Next, the hexane extract was evaporated to dryness with N2, the residue dissolved in 2.5% ascorbate in methanol (1 ml) and analyzed (100 μl) by high-performance liquid chromatograph (HPLC). […] The mobile phase, 95% MeOH was run isocratically and the HPLC retention times for delta and alpha-tocopherol were approximately eleven and sixteen minutes, respectively. […] Following the addition of 0.2 ml 4 M HC1, the neutralized KOH-MeOH extracted with 0.8 ml hexane. […] A standard curve for each tocopherol congener was run with every assay. […] Only viable cells were monitored in the laboratory procedures.
To determine the relative cytoprotective potency of various tocopherol derivatives, the effect of varying doses of a tocopherol analog on the protection against EMS-induced toxicity was examined in vitro on rat hepatocyte suspensions. Specifically, the following ionizable tocopherol congeners were tested: alpha-TS, alpha tocopheryl glutarate (alpha-TG), and alpha tocopheryl phosphate (alpha-TP). […] 0.1 nmoles is the lower detection limit.
In vitro experiments were conducted with a variety of different tocopherol and succinate analogs to determine which were protective against EMS induced toxicity. After five hours of incubation with 50 mM EMS and 25μM of a tocopherol or succinate analog, cytoprotection was determined by comparing the percentage of LDH leakage from control hepatocytes (vehicle only, assumed 100% protection) with the EMS only treated cells (assumed 0% protection).
An in vitro experiment with rat hepatocyte suspensions was performed to determine the effect of esterase inhibitors on alpha-TS.
(§2) Rat hepatocyte suspensions were subjected to 50 mM EMS and the percentage of cell death, the percentage of intracellular K^+ (a metabolic parameter as discussed above), the depletion of ATP and the effect on lipid peroxidation were monitored.

[5] = system: male Sprague-Dawley rats; test: CCl4 induced lethality in rats; assay type: in vivo, rat
Method: The in vivo effect of alpha-TS was tested by administering a lethal oral dose of carbon tetrachloride (CC14) to male Sprague-Dawley rats.
In the experiment described in Table 3, a single dose of alpha-TS dissolved in peanut oil:ethanol (3:2) was given to male Sprague-Dawley rats. The dose was given 24 hours prior to an orally administered CCl4 challenge dissolved in peanut oil. Two to nine animals were tested per treatment. The control group comprised rats pretreated with the vehicle only. Survival was monitored for at least 7 days after the toxic insult.
In vivo experiments were performed to determine if the time the ionizable tocopherol analog (alpha-TS) is administered affects the cytoprotective functions. Male Sprague-Dawley rats were given a 100 mg/kg intraperitoneal dose of a tocopherol or succinate analog and were given a lethal dose of CCl4 (2.9g/kg by oral gavage). Table 7 contrasts the times of administration of the tocopherol or succinate analog and the times of administration of the lethal dose of CCl4 with the survival of the rats in the study (3to 6 rats per protective treatment).
Several tocopherol and succinate analogs were tested for CCl4 induced lethality. A single dose of the tocopherol or succinate analog was administered twenty four hours prior to orally administering 2.9 g CCl4 /kg body weight. Three to six animals were analyzed per treatment. The rats were monitored for seven days. […]

[6] = system: rat hepatocytes; test: EMS-induced lipid peroxidation in rat hepatocyte suspensions; assay type: cell-based; settings: Rattus norvegicus, Hepatocyte; 25 μM, 50 mM EMS
Method: as §1, §2

[7] = system: rat hepatocytes; test: Cellular alpha-tocopherol and tocopherol ester content of rat hepatocytes; settings: for Hepatocyte Concentration Alpha-T: EMS 3 h
Method: as §1
The hepatocytes were subsequently exposed to 50mM EMS for three hours.

[8] = system: rat hepatocytes; test: ATP content of rat hepatocyte suspensions; assay type: cell-based
Excerpt: It is well known that the succinate molecule is utilized by the cell to produce ATP energy. In the tricarboxylic acid cycle, succinate is oxidized by succinate dehydrogenase to produce ATP. Oxidation occurs in the mitochondria and the mitochondria can utilize both succinate formed in the mitochondria or succinate transported to the mitochondria. Increasing ATP production may enhance cellular repair processes as well as normal metabolic processes. For example, the cell's ability to remove free intracellular Ca^2+ during a toxic insult is related to ATP production. Succinate administration stimulates gluconeogenesis to form glucose 6-phosphate which is used for producing energy anaerobically (ATP formation through glycolysis) and for producing reducing equivalents (NADPH formation through the hexose monophosphate shunt needed for lipid and nucleotide biosynthesis and other biosynthetic reductions and enzymatic reactions, e.g., glutathione reductase). An in vitro experiment was conducted to determine the relationship between the release of succinate from alpha-TS and the cellular ATP level. The experiment was performed by incubating a tocopherol analog in a rat hepatocyte suspension and measuring the ATP level at the beginning and end of the test.
as §2

[9] = system: cultured rat hepatocytes; test: EMS-induced toxicity and lipid peroxidation in primary cultures of rat hepatocytes; assay type: cell-based; settings: for Cell Death / Lipid Peroxidation: 50 mM EMS, 6 hrs
Method: To confirm the cytoprotective properties of alpha-TP under physiological conditions in vitro tests using primary cultures of adult rat hepatocytes were conducted (another in vitro model system). Unlike the hepatocyte suspensions used for the in vitro modeling discussed above, cultured hepatocytes retain their in vivo cuboidal shape as a result of attachment to a collagen matrix, and their lifespan in vitro is 5 to 7 days, instead of 8-12 hours (as with suspensions).

[10] = 100 mg/kg ip (dihydrocholesterol 80 + sodium sulfate 30 mg/kg), 48 h after 1 g/kg CCl4 (Table 35)
[11] = 100 mg/kg ip, PEG 400 vehicle, 48 h after 1 g/kg CCl4 (Table 34)
[12] = 100 mg/kg, single dose 24 h prior, CCl4 […]

SMILES: CC(C)CCC[C@@H](C)[C@H]1CC[C@H]2[C@@H]3CC[C@H]4C[C@@H](OS(=O)(=O)O)CC[C@]4(C)[C@H]3CC[C@]12C [Dihydrocholesterol sulfate, sodium salt]
- ALT [1]: 1305±568
- ALT [2, 10]: 0.02 ± 0.01 10^3 units/L
- AST [2, 10]: 0.17 ± 0.04 10^3 units/L
- ALT [2, 11]: 0.03 ± 0.03 10^3 units/L
- AST [2, 11]: 0.15 ± 0.07 10^3 units/L
- inhibition in vivo at 100 mg/kg ([2]; Rattus norvegicus, ip, 48 h, read-out: % Hepatoprotection): 100%
- protection against CCl4 hepatotoxicity (in words) ([2]; rats, serum enzyme levels): complete protection against hepatotoxicity

SMILES: Cc1c(C)c2c(c(C)c1O)CC[C@@](C)(CCC[C@H](C)CCC[C@H](C)CCCC(C)C)O2 [alpha-T, d-alpha-tocopherol, reference compound]
- Liver Concentration Alpha-T [3]: 128 ± 10 nmol/g
- Protection From Toxic Injury ([4]; 25 μM): No
- Protection From Toxic Injury ([4]; 50 μM): No
- Protection From Toxic Injury ([4]; 250 μM): No
- inhibition at 25 µM ([4]; Rattus norvegicus, Hepatocyte, 5 h, read-out: Percent Cytoprotection): 8 ± 10%
- inhibition at 25 µM ([4]; Rattus norvegicus, Hepatocyte, read-out: % Protection): 19%
- protection of hepatocytes against EMS ([4]; up to 250 μM): Protection was not afforded
- Survival after CCl4 treatment ([5]; 100 mg/kg ip 24 h prior, […] CCl4 oral): No
- Protection from CCl4 ([5]; 100 mg/kg ip (Table 5)): No
- Days Survived After CCl4 Treatment ([5]; 100 mg/kg ip, 24 h prior, CCl4 2.2 g/kg): 3 days
- Days Survived After CCl4 Treatment ([5]; 100 mg/kg ip, 24 h prior, CCl4 3.8 g/kg): 2 days
- Days Survived After CCl4 Treatment ([5]; 100 mg/kg ip, 24 h prior, CCl4 5.0 g/kg): 2 days
- Days Survived After CCl4 Treatment ([5]; 100 mg/kg ip, 24 h prior, CCl4 […]): 2 days
- Days Survived After CCl4 Treatment [5, 12]: 3 days
- Days Survived after CCl4 ([5]; CCl4 1.7 g/kg): three
- inhibition at 25 µM [6]: 9%
- Hepatocyte Concentration Alpha-T ([7]; 25 μM): 2.1 ± 0.7 nmol/10^6 cells
- Cellular alpha-T ([7]; 25 μM, Table 2): 2.6 nmoles/10^6 cells
- Hepatocyte Concentration Alpha-T ([7]; 50 μM): 6.1 ± 0.7 nmol/10^6 cells
- Hepatocyte Concentration Alpha-T ([7]; 250 μM): 23.7 ± 2.4 nmol/10^6 cells
- Rate of ATP Depletion ([8]; 25 μM): 1.5 ± 0.2 nmoles/10^6 cell/hr
- Cellular ATP ([8]; 25 μM, 0 Hr): 15.2 ± 1.6 nmoles/10^6 cells
- Cellular ATP ([8]; 25 μM, 6 Hr): 6.3 ± 0.8 nmoles/10^6 cells

SMILES: Cc1c(C)c2c(c(C)c1OP(=O)(O)O)CCC(C)(CCCC(C)CCCC(C)CCCC(C)C)O2 (racemic) [alpha-TP, dl-alpha-tocopheryl phosphate]
- minimal effective concentration ([4]; Rattus norvegicus, Hepatocyte, read-out: medium concentration with significant protection against EMS toxicity): ≥ 50 µM
- Days Survived After CCl4 Treatment [5, 12]: 3 days
- cellular accumulation of alpha-TP ([7]; EMS): 2.68 nmols/10^6 cells
- Rate of ATP Depletion ([8]; 50 μM): 2.0 ± 0.2 nmoles/10^6 cell/hr
- Cellular ATP ([8]; 50 μM, 0 Hr): 19.4 ± 1.6 nmoles/10^6 cells
- Cellular ATP ([8]; 50 μM, 6 Hr): 7.3 ± 0.2 nmoles/10^6 cells
- Cell Death ([9]; 25 μM): 16 ± 3%
- Lipid Peroxidation ([9]; 25 μM): 2.5 ± 0.9 μmoles MDA/10^6 cells
- Cell Death ([9]; 100 μM): 15 ± 3%
- Lipid Peroxidation ([9]; 100 μM): 2.3 ± 0.1 μmoles MDA/10^6 cells
- Cell Death ([9]; 250 μM): 20 ± 3%
- Lipid Peroxidation ([9]; 250 μM): 1.7 ± 0.1 μmoles MDA/10^6 cells
- cytoprotection at 3.5 mM extracellular Ca2+ ([9]; 3.5 mM Ca2+): eliminated
